Assay results: patent publication US10017527B2, “KLK4 inhibitors” (Universiteit Antwerpen, priority 2014, dated 2018)

Key:
Format in all cases: biochemical
KLK2 (human) = molecular target: T1, KLK2 (human) (Homo sapiens, UniProt P20151); assay: KLK2 inhibition, fluorogenic substrate H-Pro-Phe-Arg-AMC; conditions: Tris buffer pH 8.3; read-out: IC50 KLK2
T1 construct: purchased Viktor Magdolen, TUMunich (TUM), supplied by an academic laboratory
Procedure, shortened: (§1)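 tPA, HNE: chromogenic read-out, A405 nm. KLK1/KLK2: run alike. Output as IC50.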

KLK1 (human) = molecular target: T2, KLK1 (human) (Homo sapiens, UniProt P06870); assay: KLK1 inhibition, fluorogenic substrate H-Pro-Phe-Arg-AMC; conditions: Tris buffer pH 7.8; read-out: IC50 KLK1
T2 construct: purchased Prospec
T2 sequence (P06870 25-262): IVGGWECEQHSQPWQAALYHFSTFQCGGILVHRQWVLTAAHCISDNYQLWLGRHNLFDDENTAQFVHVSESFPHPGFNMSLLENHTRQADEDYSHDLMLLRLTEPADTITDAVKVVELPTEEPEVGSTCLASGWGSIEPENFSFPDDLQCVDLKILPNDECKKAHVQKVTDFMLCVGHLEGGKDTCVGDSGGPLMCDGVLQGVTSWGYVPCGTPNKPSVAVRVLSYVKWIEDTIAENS
Procedure, shortened: as §1

KLK8 (human) = molecular target: T3, KLK8 (human) (Homo sapiens, UniProt O60259); assay: KLK8 inhibition, fluorogenic substrate Boc-Val-Pro-Arg-AMC; conditions: Tris buffer pH 8; read-out: IC50 KLK8
T3 construct: purchased Viktor Magdolen, TUMunich (TUM), supplied by an academic laboratory
T3 sequence (O60259 33-260): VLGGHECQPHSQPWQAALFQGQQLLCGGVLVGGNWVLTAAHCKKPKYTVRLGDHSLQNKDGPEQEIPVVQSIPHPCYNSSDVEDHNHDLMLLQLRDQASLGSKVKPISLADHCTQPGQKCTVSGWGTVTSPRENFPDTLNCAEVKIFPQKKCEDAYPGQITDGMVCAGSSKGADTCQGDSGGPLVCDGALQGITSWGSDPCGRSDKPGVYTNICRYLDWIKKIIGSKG
Source text: (§2) The IC50 values For KLK1, KLK2 and KLK8 were obtained in a similar way. For plasmin, tPA, thrombin, Fxa, HNE, Plasma kallikrein Chromogenic substrates were used (absorption: 405 nm). (KLK2, KLK4, KLK8 were supplied by Viktor Magdolen TUMunich (TUM)).

tPA (recombinant) = molecular target: T4, tPA (recombinant) (Homo sapiens, UniProt P00750); assay: tPA inhibition, chromogenic substrate Biophen CS-05(88); conditions: Tris buffer pH 8.3; read-out: IC50 tPA
T4 construct: purchased Nodia
T4 sequence (P00750 36-562, species assumed): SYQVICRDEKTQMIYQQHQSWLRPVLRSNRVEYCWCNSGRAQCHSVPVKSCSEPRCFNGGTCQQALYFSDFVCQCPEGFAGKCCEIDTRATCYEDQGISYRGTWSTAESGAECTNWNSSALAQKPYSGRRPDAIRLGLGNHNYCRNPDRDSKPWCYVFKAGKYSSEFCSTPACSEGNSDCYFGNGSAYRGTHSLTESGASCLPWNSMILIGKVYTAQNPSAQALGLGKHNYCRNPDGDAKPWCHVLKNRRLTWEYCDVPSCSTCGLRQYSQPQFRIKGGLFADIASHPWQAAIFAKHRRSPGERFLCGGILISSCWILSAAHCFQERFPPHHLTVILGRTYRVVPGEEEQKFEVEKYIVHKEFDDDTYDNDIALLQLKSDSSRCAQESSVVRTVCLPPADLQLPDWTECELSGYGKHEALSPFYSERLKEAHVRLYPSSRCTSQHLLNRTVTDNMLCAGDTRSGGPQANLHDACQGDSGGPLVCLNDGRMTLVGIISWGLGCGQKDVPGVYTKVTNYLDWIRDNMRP
Procedure, shortened: as §1

Thrombine (human plasma) = molecular target: T5, Thrombine (human plasma) (Homo sapiens, UniProt P00734); assay: Thrombin inhibition, chromogenic substrate Biophen CS-21(66); conditions: Thrombin; Tris buffer pH 8.3; read-out: IC50 THR
T5 construct: purchased Sigma-Aldrich; host or cells: human plasma

FXa = molecular target: T6, FXa (Homo sapiens, UniProt P00742); assay: FXa inhibition, chromogenic substrate Biophen CS-11(32); conditions: Tris buffer pH 8.3; read-out: IC50 FXa
T6 construct: purchased Nodia
T6 sequence (P00742 235-488 limits assumed): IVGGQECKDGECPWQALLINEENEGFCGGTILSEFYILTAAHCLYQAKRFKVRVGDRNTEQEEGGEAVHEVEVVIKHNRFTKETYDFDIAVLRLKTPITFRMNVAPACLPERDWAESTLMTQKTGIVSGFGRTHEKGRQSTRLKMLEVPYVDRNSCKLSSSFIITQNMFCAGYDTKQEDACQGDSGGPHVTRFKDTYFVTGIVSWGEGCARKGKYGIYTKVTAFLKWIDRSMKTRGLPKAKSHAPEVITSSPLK
T6 sequence (P00742 41-179 partner limits assumed): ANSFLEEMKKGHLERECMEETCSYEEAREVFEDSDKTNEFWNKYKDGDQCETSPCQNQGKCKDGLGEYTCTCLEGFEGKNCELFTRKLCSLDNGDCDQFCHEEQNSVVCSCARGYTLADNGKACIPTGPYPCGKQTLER
Source text: as §2

AcHE = AcHE (Homo sapiens, UniProt P22303); assay: AcHE inhibition; conditions: read-out: IC50 AcHE
Sequence of AcHE (P22303 32-614): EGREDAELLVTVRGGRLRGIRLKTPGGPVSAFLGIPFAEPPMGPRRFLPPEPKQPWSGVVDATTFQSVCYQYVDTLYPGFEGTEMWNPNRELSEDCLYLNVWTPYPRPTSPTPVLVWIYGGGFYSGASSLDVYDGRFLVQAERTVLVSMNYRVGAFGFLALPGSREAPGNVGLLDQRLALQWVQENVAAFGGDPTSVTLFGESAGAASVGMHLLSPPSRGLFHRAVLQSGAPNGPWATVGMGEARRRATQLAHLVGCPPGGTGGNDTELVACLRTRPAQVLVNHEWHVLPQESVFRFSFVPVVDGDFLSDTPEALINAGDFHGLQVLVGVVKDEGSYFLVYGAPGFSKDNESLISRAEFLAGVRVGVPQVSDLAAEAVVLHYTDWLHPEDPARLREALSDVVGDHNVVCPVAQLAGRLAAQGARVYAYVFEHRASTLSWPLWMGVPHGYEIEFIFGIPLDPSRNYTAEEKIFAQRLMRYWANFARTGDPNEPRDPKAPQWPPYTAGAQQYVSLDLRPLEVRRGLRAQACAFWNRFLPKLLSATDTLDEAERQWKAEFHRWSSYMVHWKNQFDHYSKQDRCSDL

T1 sequence (P20151 25-261): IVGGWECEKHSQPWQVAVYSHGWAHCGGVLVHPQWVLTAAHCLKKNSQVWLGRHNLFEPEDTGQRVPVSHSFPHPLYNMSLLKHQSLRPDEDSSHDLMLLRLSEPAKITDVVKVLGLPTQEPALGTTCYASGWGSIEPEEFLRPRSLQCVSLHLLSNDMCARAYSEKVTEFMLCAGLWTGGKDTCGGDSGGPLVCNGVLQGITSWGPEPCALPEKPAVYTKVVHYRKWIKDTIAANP

| Structure (SMILES) | IC50 (KLK2 (human)) | IC50 (KLK1 (human)) | IC50 (KLK8 (human)) | IC50 (tPA (recombinant)) | IC50 (Thrombine (human plasma)) | IC50 (FXa) | IC50 (AcHE) |
| --- | --- | --- | --- | --- | --- | --- | --- |
| COCCOCCOC(=O)NC(c1ccc(NC(=N)N)cc1)P(=O)(Oc1ccccc1)Oc1ccccc1.O=C(O)C(F)(F)F (centres unmarked) [Compound 28, 2-(2-methoxyethoxy)ethyl((diphenoxyphosphoryl)(4-guanidinophenyl)methyl) carbamate 2,2,2-trifluoroacetate] | 0.1 to 1 µM | 10 to 250 µM | 10 to 250 µM | > 250 µM | > 250 µM | > 250 µM | 10 to 250 µM |
| N=C(N)Nc1ccc(C(NC(=O)OCCOc2ccccc2)P(=O)(Oc2ccccc2)Oc2ccccc2)cc1.O=C(O)C(F)(F)F (centres unmarked) [Compound 30, 2-phenoxyethyl((diphenoxyphosphoryl)(4-guanidinophenyl)methyl)carbamate 2,2,2-trifluoroacetate] | 0.1 to 1 µM | 2.5 to 10 µM | 10 to 250 µM | > 250 µM | > 250 µM | 10 to 250 µM | 10 to 250 µM |
